“Also recorded” adds a separate entry of the source.
Legend:
[1] = system: AFibα amyloid (Fibrinogen α); test: Biotinylated peptide overlay on amyloid-containing tissue sections; type: binding, human
Description: (§1) To catalog the range of amyloids that p31 and other peptides may bind, biotinylated peptides using the biotinyl-maleimide adduct which interacts specifically with the solitary Cys residue in the “leader” sequence were prepared. The peptides were overlaid onto formalin-fixed 6 μm-thick amyloid-containing tissue sections, incubated overnight and then the distribution visualized using standard immunohistochemical techniques.

[2] = system: ALλ amyloid (λ light chains); test: as above; type: binding, human; settings: overnight incubation, 6 μm-thick sections
Description: as §1

[3] = system: ALκ amyloid (κ light chains); test: as above; type: binding, human
Description: as §1

ACEOT amyloid (ODAM) = test: as above; type: binding, human
Description: as §1

ALECT2 amyloid (Lectin2) = target: T1, ALECT2 amyloid (Lectin2) (Homo sapiens, UniProt O14960); test: as above; type: binding
T1 construct: from tissue; host or cells: formalin-fixed patient tissue sections
T1 sequence (O14960 19-151): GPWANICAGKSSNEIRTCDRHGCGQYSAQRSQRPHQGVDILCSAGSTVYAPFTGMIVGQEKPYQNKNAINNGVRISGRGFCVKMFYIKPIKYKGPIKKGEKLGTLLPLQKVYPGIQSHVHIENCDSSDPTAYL
Description: as §1

[4] = target: T2, Aβ amyloid (Amyloid β peptide in Alzheimer's disease) (Homo sapiens, UniProt P05067); test: as above; type: binding
T2 construct: Amyloid β peptide in Alzheimer's; from tissue; host or cells: formalin-fixed tissue sections from Alzheimer's disease patients
Description: as §1

[5] = target: T3, ATTR amyloid (Transthyretin) (Homo sapiens, UniProt P02766); test: as above; type: binding
T3 construct: amyloid-containing tissue sections from patients with AL κ and λ amyloidosis, Alzheimer's disease, Transthyretin amyloidsis (ATTR); from tissue; host or cells: formalin-fixed patient tissue sections
Description: as §1

[6] = target: T4, AGal amyloid (Galectin 7) (Homo sapiens, UniProt P47929); test: as above; type: binding
T4 construct: from tissue; host or cells: formalin-fixed patient tissue sections
T4 sequence (P47929 whole entry): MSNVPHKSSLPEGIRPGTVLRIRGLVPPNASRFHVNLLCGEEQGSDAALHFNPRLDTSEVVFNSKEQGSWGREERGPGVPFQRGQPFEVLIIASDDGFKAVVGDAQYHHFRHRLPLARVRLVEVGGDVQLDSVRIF
Description: as §1

[7] = system: AA amyloid (Serum amyloid protein A); test: as above; type: binding; settings: AA (human and canine)
Description: as §1

[8] = system: amyloid deposits in tissues from patients with light chain (AL) amyloidosis, Alzheimer's disease and other forms of amyloidosis; test: Biotinylated peptide overlay on formalin-fixed paraffin embedded patient tissues; type: binding, human; settings: formalin-fixed paraffin embedded tissue sections
Description: The reactivity of biotinylated peptide p31 with amyloid deposits in formalin-fixed paraffin embedded tissues from patients with light chain (AL) amyloidosis, or Alzheimer's disease, and other forms of amyloidosis was examined.
as §1

AA amyloid = target: T5, AA amyloid (Mus musculus, UniProt P05367); test: In vivo evaluation of radiolabeled peptides in TRIAD AA mouse model: SPECT imaging, biodistribution, autoradiography; settings: for autoradiography: binding to AA amyloid in the necrotic renal papillae in vivo: mouse; for SPECT imaging of 125I-labeled fusion peptides in AA mice versus WT: mice with visceral AA amyloidosis
T5 construct: from tissue; host or cells: living TRIAD mice with systemic peripheral AA amyloidosis
T5 sequence (P05367 20-95 limits assumed): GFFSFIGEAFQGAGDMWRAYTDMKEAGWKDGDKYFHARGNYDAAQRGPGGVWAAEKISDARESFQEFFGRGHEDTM
Description: Based on the data obtained with protamines, in the Examples below, peptides that are positively charged are selected. They were labeled with radioiodine (I-125 and I-123) or technetium (Tc-99m) tested for in vivo binding to systemic AA amyloid deposits in the transgenic rapidly inducible amyloid disease (TRIAD) murine model by microSPECT or microPET imaging. The tissue biodistribution of each were assessed by gamma counting and the micro-distribution determined by autoradiography. Further, preliminary examinations were performed of the binding of biotinylated forms of these peptides with formalin-fixed, paraffin-embedded, amyloid-containing tissue sections from patients with AL κ and λ amyloidosis, Alzheimer's disease, Transthyretin amyloidsis (ATTR), serum amyloid protein A amyloidosis (AA), fibrinogen α amyloidosis (AFibα), calcifying epithelium odontogenic tumor amyloid (AODAM), galectin 7 amyloidosis (AGal), and Lect2 amyloidosis (ALECT2).
Two methods of radiolabeling the peptides were employed. For radioiodination, the direct oxidative iodination of tyrosyl groups on the peptides was employed. This method yields product with high specific activity (˜10-20 μCi/μg) of pure ^125I-labeled peptide. The second method involves radiolabeling the peptides with ^99mTc according to the method of Tran et al. (Bioconjugate Chem, 2007, 18, 549-558). The quality of each radiolabeled peptide was assessed by SDS-PAGE (15% poly-acrylamide) analyzed with quantitative phosphor imaging.
Each of the radiolabeled peptides were evaluated for its specific reactivity with amyloids in vivo, using the TRIAD AA mouse model, by using SPECT imaging, biodistribution measurements, and autoradiography. The reactivity of the radiolabeled peptides were assessed in transgenic rapidly inducible amyloid disease (TRIAD) mice with systemic peripheral AA amyloidosis as well as control (amyloid free) mice, by imaging the mice. The reactivity of the peptides were evaluated at 1 hour, 2 hours, 4 hours, 8 hours, 12 hours, or 24 hours post injection of the radiolabeled peptides. […] The other peptides also bound amyloids, but not as well as these.
In a dual-energy imaging experiment, peptide p31 was labeled with Tc^99m and SAP labeled with I^125 and the binding of each radiotracer was examined by using dual-energy microSPECT imaging in an individual TRIAD mouse with AA amyloidosis.
To examine the kinetics of the reactivity of peptides p48, p31, and p31-GGGY, dynamic PET imaging of I^124-labeled peptides p48, p31, p31-GGGY, and p50 (as a control) was performed in TRIAD mice with AA amyloidosis or wild type mice without amyloid. Finally, in a preliminary study, the binding of I^125-labeled SAP and Tc^99m-labeled peptide p31 was compared in the same TRIAD mouse with AA amyloidosis.

[9] = system: ApoA2c amyloid-laden tissues; test: Ex vivo amyloid binding assay with homogenized tissue of ApoA2c mice; design: species or system mouse; settings: for binding to ApoA2c amyloid-laden tissues in vitro: 125I-labeled, 1 h incubation, gamma counting
Description: (§2) The novel peptide, p5R+14, was radiolabeled with ^125I via an oxidation reaction with chloramine T. The labeled peptide was separated from free iodide using size exclusion chromatography on a Sephadex G25 column. For ex vivo amyloid binding assays, the ^125I-labeled p5 and p5R+14 peptides were added to 50 μL of homogenized tissue derived from wild type or amyloid laden ApoA2c mice. After a 1 h incubation, the amount of bound peptide (% of total) was assessed by gamma counting following centrifugation. For in vivo imaging, peptides p5 and p5R+14 were radiolabeled as above, and the radiopurities were determined by using SDS-PAGE and phosphor imaging.

ApoA2c amyloid = test: In vivo SPECT/CT imaging, biodistribution and micro-autoradiography in ApoA2c mice; design: species or system mouse; settings: for SPECT/CT uptake in amyloid-laden tissues: 2 or 4 h pi; for biodistribution, tissue-to-muscle ratios, ApoA2c versus WT tissues: mouse, in vivo
Description: as §2
Approximately 200 μCi was injected iv in the lateral tail vein of ApoA2c mice (n=3). SPECT/CT images were acquired using the Inveon Tri-Modality System at 2 or 4 h pi. Organs were harvested and biodistribution of radiotracers was determined and recorded as % injected dose/gram. For comparisons between the peptides, tissue to muscle ratios were used. The tissues were then fixed in formalin, paraffin embedded, sectioned and exposed to photographic emulsion for ˜3 days.

AA amyloid deposits = target: T6, AA amyloid deposits (Mus musculus, UniProt P05367)
T6 sequence (P05367 20-95 limits assumed): T5 sequence (P05367 20-95 limits assumed)
Description: Following radioiodination, ^125I-labeled protamine (^125I-protamine) was administered to animals with severe systemic AA amyloidosis mice or to amyloid-free mice and allowed to circulate for 1 hour, 2 hours, 4 hours, 8 hours or 24 hours. At each time point high-resolution microSPECT/CT images were acquired and the tissue distribution of the radioactivity determined by gamma counting. Finally, 6 μm-thick tissue sections were prepared for autoradiography and histological evaluation of the micro-distribution of the radiolabeled peptides and amyloid deposits, respectively.

CGGYSKAQKAQAKQAKQAQKAQKAQAKQAKQ (Heparin-binding peptide) [p31]
binding to amyloid in tissue sections [1]: specifically binds significantly
binding to amyloid in tissue sections [2]: specifically binds significantly
binding to amyloid in tissue sections [3]: specifically binds significantly
binding to amyloid in tissue sections (ACEOT amyloid (ODAM)): specifically binds significantly
binding to amyloid in tissue sections (ALECT2 amyloid (Lectin2)): specifically binds significantly
binding to amyloid in tissue sections [4]: specifically binds significantly
binding to amyloid in tissue sections [5]: specifically binds significantly
binding to amyloid in tissue sections [6]: specifically binds significantly
binding to amyloid in tissue sections [7]: specifically binds significantly
binding of biotinylated peptide to tissue amyloid [8]: bound tissue amyloid from these patients with great affinity; also recorded: selectively bound to the amyloids in the tissue section
SPECT imaging of AA amyloid compared to SAP (AA amyloid; 99mTc-labeled peptide, 125I-labeled SAP, same mouse): as effective as SAP; also recorded: the same as that for SAP
SPECT distribution in AA mouse compared to WT control (AA amyloid; 125I-labeled): totally different
retention on AA amyloid in vivo (SPECT images and biodistribution) (AA amyloid; 24 h post-injection): remained bound to the AA amyloid in vivo
specific amyloid binding, ranking from in vivo imaging studies (AA amyloid; TRIAD AA mouse model, 1-24 hours post injection): best specific amyloid binding reagents
autoradiography: reactivity with murine pancreatic AA amyloid (AA amyloid; compared to SAP): greater reactivity with murine pancreatic AA amyloid as compared to SAP
biodistribution: amount of amyloid bound compared to SAP (AA amyloid; mice): binds more amyloid in vivo
autoradiography: binding to AA amyloid in the necrotic renal papillae in vivo (AA amyloid): binds AA amyloid in the necrotic renal papillae

GGGYSKAQKAQAKQAKQAQKAQKAQAKQAKQ [p31-GGGY]
binding to ApoA2c amyloid-laden tissues in vitro [9]: able to bind
uptake of radiotracer in splenic amyloid in vivo (ApoA2c amyloid; ApoA2c mice): no uptake
SPECT/CT uptake in amyloid-laden tissues (ApoA2c amyloid; ApoA2c mice): lack of positive amyloid uptake
micro-autoradiography of tissues (ApoA2c amyloid; ApoA2c mice, listed as 125I-p5): only slight uptake
micro-autoradiography of tissues (ApoA2c amyloid; ApoA2c mice, listed as p5): scant amounts
biodistribution, tissue-to-muscle ratios, ApoA2c versus WT tissues (ApoA2c amyloid): not significantly higher

GGGYSRAQRAQARQARQAQRAQRAQARQARQAQRAQRAQARQARA [p31RGGGY + 14]
binding to ApoA2c amyloid-laden tissues in vitro [9]: able to bind
amount bound compared between p5R+14 and p5 ([9]; tissues of ApoA2c-amyloid mouse, listed as p5R+14): bound in greater amounts to all tissue samples as compared to p5; also recorded: higher binding in every tissue of interest
micro-autoradiography of tissues (ApoA2c amyloid; ApoA2c mice): localized to amyloid within the tissues
SPECT/CT uptake in amyloid-laden tissues (ApoA2c amyloid; ApoA2c mice, listed as 125I-p5R+14): uptake of ^125I-p5R+14 in amyloid-laden tissues such as the heart, liver, spleen and intestines; also recorded: cardiac uptake is not part of blood pool clearance
SPECT/CT uptake in amyloid-laden tissues (ApoA2c amyloid; ApoA2c mice, listed as p5R+14): bound cardiac amyloid deposits as well as those in the liver, spleen and intestines
biodistribution, tissue-to-muscle ratios, ApoA2c versus WT tissues (ApoA2c amyloid): clearly more p5R+14 binding to the diseased tissues

GGYSKAQKAQAKQAKQAQKAQKAQAKQAKQGGTFFYGGSRGKRNNFKTEEY [WAL14465]
SPECT imaging of 125I-labeled fusion peptides in AA mice versus WT (AA amyloid): retained by the amyloid deposits in the liver spleen and kidneys

RRLSYSRRRFCGGYSKAQKAQAKQA KQAQKAQKAQAKQAKQ (RRLSYSRRRFCGGYSKAQKAQAKQAKQAQKAQKAQAKQAKQ) [Syb3-p31, fusion of p31 with cell penetrating peptide]
SPECT imaging of 125I-labeled fusion peptides in AA mice versus WT (AA amyloid): retained by the amyloid deposits in the liver spleen and kidneys

SAP: Serum amyloid P component, the gold standard amyloid imaging agent; decameric, Mw ~250 kD [reference compound]
autoradiography: binding to AA amyloid in the necrotic renal papillae in vivo (AA amyloid): does not

YGRKKRRQRRRCGGYSKAQKAQAKQAKQAQKAQKAQAKQAKQ [TAT-p31, fusion of p31 with cell penetrating peptide]
SPECT imaging of 125I-labeled fusion peptides in AA mice versus WT (AA amyloid): retained by the amyloid deposits in the liver spleen and kidneys

protamine
microSPECT distribution in AA mice (AA amyloid deposits; AA mice): sequestered by amyloid deposits in the liver, kidney, pancreas and spleen
micro-autoradiography association with amyloid (AA amyloid deposits; AA mice, notably liver): preferentially associated with the AA amyloid
accumulation in organs or tissues of amyloid-free mice (AA amyloid deposits; amyloid-free mice): little or no specific accumulation
calculated tissue:muscle ratios, mice with AA versus amyloid-free mice (AA amyloid deposits; liver, kidney, pancreas, spleen, stomach, gamma counting): at least 2 fold
fate of radiolabel in control mice (AA amyloid deposits; mouse, in vivo): rapidly dehalogenated
